From ChEMBL document CHEMBL3804756 (J Med Chem, 2016)
pEC50, pKi: −log10 of the molar value.

Experiments:
Histamine H1 receptor [1] = molecular target: T1, Histamine H1 receptor (Homo sapiens, UniProt P35367); test: Displacement of [3H]mepyramine from human histamine H1 receptor expressed in sf9 cell membrane co-expressing RGS4 incubated for 60 mins by liquid scintillation counting method
Histamine H2 receptor [2] = molecular target: T2, Histamine H2 receptor (Homo sapiens, UniProt P25021); test: Antagonist activity at human histamine H2 receptor expressed in sf9 cell membrane co-expressing Gsalphas assessed as inhibition of histamine-induced [35S]GTPgammaS binding incubated for 90 mins; format: functional
Histamine H2 receptor [3] = molecular target: T2, Histamine H2 receptor; test: Intrinsic activity at human histamine H2 receptor expressed in sf9 cell membrane co-expressing Gsalphas at 10 uM incubated for 90 mins by [35S]GTPgammaS binding assay relative to histamine; format: functional
Histamine H3 receptor [4] = molecular target: T3, Histamine H3 receptor (Homo sapiens, UniProt Q9Y5N1); test: Antagonist activity at human histamine H3 receptor expressed in sf9 cell membrane co-expressing mammalian Galphai2 and Gbeta1gamma2 assessed as inhibition of histamine-induced [35S]GTPgammaS binding incubated for 90 mins; format: functional
Histamine H2 receptor [5] = molecular target: T2, Histamine H2 receptor; test: Displacement of [3H]tiotidine from human histamine H2 receptor expressed in sf9 cell membrane co-expressing Gsalphas incubated for 60 mins by liquid scintillation counting method
Histamine H3 receptor [6] = molecular target: T3, Histamine H3 receptor; test: Intrinsic activity at human histamine H3 receptor expressed in sf9 cell membrane co-expressing mammalian Galphai2 and Gbeta1gamma2 at 10 uM incubated for 90 mins by [35S]GTPgammaS binding assay relative to histamine; format: functional
Histamine H3 receptor [7] = molecular target: T3, Histamine H3 receptor; test: Displacement of [3H]N-alpha-methylhistamine from human histamine H3 receptor expressed in sf9 cell membrane co-expressing mammalian Galphai2 and Gbeta1gamma2 incubated for 60 mins by liquid scintillation counting method
Histamine H4 receptor [8] = molecular target: T4, Histamine H4 receptor (Homo sapiens, UniProt Q9H3N8); test: Agonist activity at human histamine H4 receptor expressed in sf9 cell membrane co-expressing mammalian Galphai2 and Gbeta1gamma2 incubated for 90 mins by [35S]GTPgammaS binding assay; format: functional
Histamine H4 receptor [9] = molecular target: T4, Histamine H4 receptor; test: Displacement of [3H]UR-PI294 from human histamine H4 receptor expressed in sf9 cell membrane co-expressing mammalian Galphai2 and Gbeta1gamma2 incubated for 60 mins by liquid scintillation counting method
Histamine H3 receptor [10] = molecular target: T3, Histamine H3 receptor; test: Agonist activity at human histamine H3 receptor expressed in sf9 cell membrane co-expressing mammalian Galphai2 and Gbeta1gamma2 incubated for 90 mins by [35S]GTPgammaS binding assay; format: functional
Histamine H4 receptor [11] = molecular target: T4, Histamine H4 receptor; test: Agonist activity at human SF-His6-tagged histamine H4 receptor expressed in HEK293 cells assessed as inhibition of forskolin-stimulated response incubated for 5 hrs by luciferase reporter gene assay; format: cell-based
Histamine H4 receptor [12] = molecular target: T5, Histamine H4 receptor (Mus musculus, UniProt Q91ZY2); test: Agonist activity at mouse SF-His6-tagged histamine H4 receptor expressed in HEK293 cells assessed as inhibition of forskolin-stimulated response incubated for 5 hrs by luciferase reporter gene assay; format: cell-based
T5 sequence (Q91ZY2 whole entry): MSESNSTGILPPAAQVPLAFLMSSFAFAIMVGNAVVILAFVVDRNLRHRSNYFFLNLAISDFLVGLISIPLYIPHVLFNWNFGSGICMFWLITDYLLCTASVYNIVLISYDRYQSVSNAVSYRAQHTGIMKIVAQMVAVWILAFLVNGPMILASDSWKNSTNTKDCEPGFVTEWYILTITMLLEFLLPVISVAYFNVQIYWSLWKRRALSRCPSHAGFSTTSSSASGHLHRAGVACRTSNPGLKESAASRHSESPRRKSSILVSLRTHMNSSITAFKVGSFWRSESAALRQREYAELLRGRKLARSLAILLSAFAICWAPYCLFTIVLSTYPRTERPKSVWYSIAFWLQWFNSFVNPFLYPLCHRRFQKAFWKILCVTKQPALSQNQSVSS

Histamine H1 receptor [13] = molecular target: T1, Histamine H1 receptor; test: Antagonist activity at human histamine H1 receptor expressed in sf9 cell membrane co-expressing RGS4 assessed as inhibition of histamine-induced increase in 32Pi level preincubated for 2 mins followed by [gamma-32P]GTP addition measured after 20 mins by liquid scintillation counting method
[14] = molecular target: T6, Histamine H4 receptor (Mus musculus) (UniProt Q91ZY2); test: Intrinsic activity at mouse SF-His6-tagged histamine H4 receptor expressed in HEK293 cells assessed as inhibition of forskolin-stimulated response incubated for 5 hrs by luciferase reporter gene assay relative to histamine; format: cell-based
T6 sequence (whole entry): T5 sequence (Q91ZY2 whole entry)

T1 sequence (P35367 whole entry): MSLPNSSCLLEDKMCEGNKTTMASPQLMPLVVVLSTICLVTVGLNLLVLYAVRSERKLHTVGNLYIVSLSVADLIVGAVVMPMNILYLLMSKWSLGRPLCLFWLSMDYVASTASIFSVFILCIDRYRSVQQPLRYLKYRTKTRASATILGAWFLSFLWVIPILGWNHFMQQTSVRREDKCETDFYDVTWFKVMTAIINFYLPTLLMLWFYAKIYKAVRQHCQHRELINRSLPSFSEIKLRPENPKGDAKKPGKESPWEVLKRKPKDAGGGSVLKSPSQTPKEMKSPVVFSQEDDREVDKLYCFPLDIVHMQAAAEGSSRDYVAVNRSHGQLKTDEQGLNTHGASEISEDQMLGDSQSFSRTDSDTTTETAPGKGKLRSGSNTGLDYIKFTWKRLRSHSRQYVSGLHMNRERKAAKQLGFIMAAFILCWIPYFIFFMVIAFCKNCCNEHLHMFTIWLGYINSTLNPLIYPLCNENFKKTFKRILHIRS
T2 sequence (P25021 whole entry): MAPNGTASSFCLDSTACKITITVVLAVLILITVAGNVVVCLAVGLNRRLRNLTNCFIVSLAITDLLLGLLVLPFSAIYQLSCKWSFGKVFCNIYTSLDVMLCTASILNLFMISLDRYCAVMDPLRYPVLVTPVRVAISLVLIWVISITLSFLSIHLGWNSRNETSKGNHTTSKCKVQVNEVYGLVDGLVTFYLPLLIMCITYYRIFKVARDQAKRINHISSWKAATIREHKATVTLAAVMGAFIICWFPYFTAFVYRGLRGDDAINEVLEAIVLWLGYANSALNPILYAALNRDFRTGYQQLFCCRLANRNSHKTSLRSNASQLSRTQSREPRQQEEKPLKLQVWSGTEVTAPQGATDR
T3 sequence (Q9Y5N1 whole entry): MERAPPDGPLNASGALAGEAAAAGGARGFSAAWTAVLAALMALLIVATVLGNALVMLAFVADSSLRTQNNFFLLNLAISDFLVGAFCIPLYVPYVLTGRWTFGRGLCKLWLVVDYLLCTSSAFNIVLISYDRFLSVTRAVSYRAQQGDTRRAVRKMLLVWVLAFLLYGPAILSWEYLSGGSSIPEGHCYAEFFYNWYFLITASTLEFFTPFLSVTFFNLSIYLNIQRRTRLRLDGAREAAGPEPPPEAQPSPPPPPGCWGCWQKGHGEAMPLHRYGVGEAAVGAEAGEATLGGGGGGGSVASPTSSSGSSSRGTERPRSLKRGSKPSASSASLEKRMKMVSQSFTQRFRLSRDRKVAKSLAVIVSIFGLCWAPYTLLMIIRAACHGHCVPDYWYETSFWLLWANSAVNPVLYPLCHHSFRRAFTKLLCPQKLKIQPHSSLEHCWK
T4 sequence (Q9H3N8 whole entry): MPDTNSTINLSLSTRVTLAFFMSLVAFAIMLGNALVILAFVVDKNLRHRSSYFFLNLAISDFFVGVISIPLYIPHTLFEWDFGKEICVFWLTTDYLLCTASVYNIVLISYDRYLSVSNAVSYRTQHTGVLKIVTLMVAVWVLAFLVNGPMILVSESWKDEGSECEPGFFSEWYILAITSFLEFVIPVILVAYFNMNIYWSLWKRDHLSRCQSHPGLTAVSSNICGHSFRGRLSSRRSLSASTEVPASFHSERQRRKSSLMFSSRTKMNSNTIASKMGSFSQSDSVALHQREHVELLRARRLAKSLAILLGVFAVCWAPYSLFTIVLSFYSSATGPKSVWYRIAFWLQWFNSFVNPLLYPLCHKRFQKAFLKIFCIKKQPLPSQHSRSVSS

Row | SMILES | pKi (Histamine H1 receptor [1]) | Kb (Histamine H2 receptor [2]) [nM] | Intrinsic activity (Histamine H2 receptor [3]) | Kb (Histamine H3 receptor [4]) [nM] | pKi (Histamine H2 receptor [5]) | Intrinsic activity (Histamine H3 receptor [6]) | pKi (Histamine H3 receptor [7]) | pEC50 (Histamine H4 receptor [8]) | pKi (Histamine H4 receptor [9]) | pKi (Histamine H1 receptor [1]; sf9) | pEC50 (Histamine H3 receptor [10]) | pEC50 (Histamine H4 receptor [11]) | pEC50 (Histamine H4 receptor [12]) | Kb (Histamine H1 receptor [13]) [nM] | Intrinsic activity [14]
1 | CN/C(=N\C#N)NC[C@H]1CC[C@@H](c2c[nH]cn2)C1 | < 5.00 | > 10000 | 0 | 2810 | < 5.00 | -0.14 | 5.02 | 5.57 | 5.46 |  |  |  |  |  | 
2 | CN/C(=N\C#N)NC[C@@H]1CC[C@H](c2c[nH]cn2)C1 |  |  |  |  | < 5.00 |  | 6.32 | 6.92 | 6.92 | < 5.00 | 6.67 |  |  |  | 
3 | N#C/N=C(/NCCSc1ccccc1)NC[C@@H]1CC[C@H](c2c[nH]cn2)C1 (racemic) | 5.42 |  |  |  |  |  | 5.87 | 6.89 | 6.60 |  |  |  |  |  | 
4 | CN/C(=N\C#N)NC[C@H]1CC[C@H](c2c[nH]cn2)C1 [listing 1 of 2 here] |  |  |  |  | < 5.00 |  | 6.02 | 7.00 | 7.01 | < 5.00 | 6.00 | 7.20 | 6.27 |  | 
5 | N#C/N=C(\NC[C@@H]1CC[C@H](c2c[nH]cn2)C1)NC1CC1 (racemic) | < 5.00 | > 10000 | 0 |  |  | 0.28 |  | 6.61 |  |  | 5.82 |  |  |  | 
6 | N#C/N=C(/NCCSc1ccccc1)NC[C@H]1CC[C@H](c2c[nH]cn2)C1 (racemic) |  | > 10000 | 0 | 246 |  | -0.4 |  |  |  |  |  |  |  | 6000 | 
7 | CN/C(=N\C#N)NC[C@H]1CC[C@H](c2c[nH]cn2)C1 (racemic) | < 5.00 |  |  |  |  |  | 6.08 | 6.69 | 6.62 |  | 6.43 |  |  |  | 
8 | N#C/N=C(/NCCOc1ccccc1)NC[C@@H]1CC[C@H](c2c[nH]cn2)C1 (racemic) | < 5.00 | > 10000 | 0 | 328 |  | 0 |  |  |  |  |  |  |  |  | 
9 | S=C(NC1CCCCC1)N1CCC(c2cnc[nH]2)CC1 |  |  |  |  |  | -0.59 |  |  |  |  |  |  |  |  | 
10 | CC(C)CN/C(=N/C#N)NC[C@@H]1CC[C@H](c2c[nH]cn2)C1 (racemic) | 5.08 | > 10000 | 0 |  |  | 0.5 |  | 6.69 |  |  | 6.07 |  |  |  | 
11 | CCC(=O)/N=C(\N)NCCCc1c[nH]cn1 |  |  | 0.8 |  |  | 0.4 |  |  |  |  |  |  |  |  | 
12 | N#C/N=C(/NCCSc1ccccc1)N[C@H]1CC[C@@H](c2c[nH]cn2)CC1 |  |  |  | 1900 |  |  |  | 6.96 |  |  |  |  |  |  | 
13 | N#C/N=C(/NCCSc1ccccc1)NC[C@@H]1CC[C@H](c2c[nH]cn2)C1 |  | > 10000 | 0 | 718 |  | -0.21 |  |  |  |  |  |  |  |  | 
14 | Cc1nc[nH]c1CCN [4-METHYLHISTAMINE] |  |  | 1 |  |  | 0.7 |  |  |  |  | 4.91 |  |  |  | 
15 | N#C/N=C(/NCCSc1ccccc1)NC[C@H]1CC[C@H](c2c[nH]cn2)C1 | 5.19 |  |  |  | 4.99 |  | 5.67 | 7.96 | 7.66 |  |  | 7.60 | 6.78 |  | 
16 | CN/C(=N\C#N)NC[C@@H]1CC[C@@H](c2c[nH]cn2)C1 | < 5.00 | > 10000 | 0 |  | < 5.00 | 0.29 | 5.25 | 5.96 | 6.06 |  | 5.04 |  | 5.44 |  | 0.96
17 | N#C/N=C(/NCCSc1ccccc1)NC[C@H]1CC[C@@H](c2c[nH]cn2)C1 | 5.17 | > 10000 | 0 | 528 | 5.13 | -0.34 | 6.13 | 6.26 | 6.54 |  |  |  |  |  | 
18 | CN/C(=N\C#N)NC[C@H]1CC[C@H](c2c[nH]cn2)C1 [listing 2 of 2 here] |  | > 10000 | 0 |  |  | 0.59 |  |  |  |  |  |  |  |  | 0.96
